Assay results taken from article PMC3790881, “Identification of Leptospira interrogans Phospholipase C as a Novel Virulence Factor Responsible for Intracellular Free Calcium Ion Elevation during Macrophage Death” (PLoS ONE, 2013).

Biological target: T1, rL-PI-PLC (recombinant LB361 gene product; L-PI-PLC) (Leptospira interrogans, UniProt Q8EX56)
T1 construct: gene LB_361; entire LB361 gene (amplicon 384 bp) in pET42a, expressed in E. coli BL21DE3, Ni-NTA purified
Experiment: IP3 fluorescence polarization assay, Lineweaver-Burk plot
Assay type: biochemical
Conditions: pH 7.0, 37 °C, 50 mM HEPES, 100 mM KCl, 1.9 mM CaCl2, 2 mM EGTA, 0.1% sodium deoxycholate; acyl chains of PIP2 not told

T1 sequence (Q8EX56 entry or part of it): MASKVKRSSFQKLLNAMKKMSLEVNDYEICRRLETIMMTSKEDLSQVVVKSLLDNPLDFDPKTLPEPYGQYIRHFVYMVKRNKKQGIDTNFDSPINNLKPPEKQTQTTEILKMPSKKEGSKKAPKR

## PIP2
  Km: 199 µM
